Measurements as given in publication PMC9287172, “Molecular basis for the regulation of human glycogen synthase by phosphorylation and glucose-6-phosphate” (Nature Structural & Molecular Biology, 2022).

B2: human glycogen synthase GYS1 (aa 1–737), untagged, as in the GYS1–GYG1^ΔCD complex (enzyme, UniProt P13807 1-737, looked up)
chain: MPLNRTLSMSSLPGLEDWEDEFDLENAVLFEVAWEVANKVGGIYTVLQTKAKVTGDEWGDNYFLVGPYTEQGVRTQVELLEAPTPALKRTLDSMNSKGCKVYFGRWLIEGGPLVVLLDVGASAWALERWKGELWDTCNIGVPWYDREANDAVLFGFLTTWFLGEFLAQSEEKPHVVAHFHEWLAGVGLCLCRARRLPVATIFTTHATLLGRYLCAGAVDFYNNLENFNVDKEAGERQIYHRYCMERAAAHCAHVFTTVSQITAIEAQHLLKRKPDIVTPNGLNVKKFSAMHEFQNLHAQSKARIQEFVRGHFYGHLDFNLDKTLYFFIAGRYEFSNKGADVFLEALARLNYLLRVNGSEQTVVAFFIMPARTNNFNVETLKGQAVRKQLWDTANTVKEKFGRKLYESLLVGSLPDMNKMLDKEDFTMMKRAIFATQRQSFPPVCTHNMLDDSSDPILTTIRRIGLFNSSADRVKVIFHPEFLSSTSPLLPVDYEEFVRGCHLGVFPSYYEPWGYTPAECTVMGIPSISTNLSGFGCFMEEHIADPSAYGIYILDRRFRSLDDSCSQLTSFLYSFCQQSRRQRIIQRNRTERLSDLLDWKYLGRYYMSARHMALSKAFPEHFTYEPNEADAAQGYRYPRPASVPPSPSLSRHSSPHQSEDEEDPRNGPLEEDGERYDEDEEAAKDRRNIRAPEWPRRASCTSSTSGSKRNSVDTATSSSLSTPSEPLSPTSSLGEERN
modifications: multiply phosphorylated (intact mass spectrometry); phosphorylated Ser641 (site 3a) modelled in the inhibited state
notes: human glycogen synthase GYS1 (muscle isoform), amino acids 1–737, codon-optimized synthetic gene; Homotetramer (dimer of dimers) in the cryo-EM structures; source: Sf9 cells, coexpressed with His6-GST-GYG1 294–350 from a bicistronic construct, purified (Ni-Sepharose, Superose 6)

Tests used:
[1] = target: T1, PTG (PPP1R3C) (Homo sapiens, UniProt Q9UQK1); assay: thermal shift assay (no Kd); type: binding
T1 construct: CBM21 domain, aa 134–259
T1 sequence (Q9UQK1 134-259): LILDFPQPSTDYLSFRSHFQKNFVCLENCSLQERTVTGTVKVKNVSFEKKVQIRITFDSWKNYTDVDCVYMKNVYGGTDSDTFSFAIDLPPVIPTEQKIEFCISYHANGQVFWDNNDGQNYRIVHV

[2] = target: T2, Glycogen synthase (GYS1) (Homo sapiens, UniProt P13807); assay: cryo-EM structures (7Q13 […] Å; also 7Q12, 7Q0S); thermal shift titration, AC50 of PP1c-dephosphorylated GYS1–GYG1^ΔCD; type: binding
T2 construct: full-length GYS1 (aa 1–737) coexpressed with GYG1 aa 294–350 (GYS1–GYG1^ΔCD); with GYG1 (aa 294–350)
T2 sequence (P13807 1-737): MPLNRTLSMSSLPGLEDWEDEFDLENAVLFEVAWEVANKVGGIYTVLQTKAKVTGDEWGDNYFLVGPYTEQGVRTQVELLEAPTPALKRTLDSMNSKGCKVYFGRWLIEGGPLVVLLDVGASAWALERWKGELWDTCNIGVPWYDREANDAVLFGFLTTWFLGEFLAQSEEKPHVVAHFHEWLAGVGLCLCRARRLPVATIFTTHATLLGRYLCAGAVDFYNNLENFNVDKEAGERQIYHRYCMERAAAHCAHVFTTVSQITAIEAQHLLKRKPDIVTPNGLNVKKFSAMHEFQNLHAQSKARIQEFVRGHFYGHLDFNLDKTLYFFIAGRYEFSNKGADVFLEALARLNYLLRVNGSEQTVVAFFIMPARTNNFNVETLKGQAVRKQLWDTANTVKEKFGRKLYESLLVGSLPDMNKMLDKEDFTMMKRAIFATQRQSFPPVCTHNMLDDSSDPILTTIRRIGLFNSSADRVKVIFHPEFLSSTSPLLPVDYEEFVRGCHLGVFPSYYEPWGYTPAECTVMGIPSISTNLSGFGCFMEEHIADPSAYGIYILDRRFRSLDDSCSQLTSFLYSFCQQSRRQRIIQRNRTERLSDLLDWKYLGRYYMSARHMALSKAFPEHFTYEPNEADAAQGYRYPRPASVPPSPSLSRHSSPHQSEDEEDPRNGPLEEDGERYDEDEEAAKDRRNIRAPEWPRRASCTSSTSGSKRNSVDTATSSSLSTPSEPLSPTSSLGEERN
T2 sequence (P46976 294-350 partner): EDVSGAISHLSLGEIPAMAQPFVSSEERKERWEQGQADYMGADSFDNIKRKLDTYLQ

[3] = target: T1, PTG (PPP1R3C); assay: thermal shift assay titration (AC50); type: binding
[4] = target: T2, Glycogen synthase (GYS1); assay: cryo-EM structure at […] Å with Glc6P and UDP-glc added (UDP-glc hydrolysed); type: binding
[5] = target: T3, GYS1–GYG1^FL complex (full-length human GYS1 with full-length glucosylated GYG1) (human, UniProt P13807 1-737; P46976-1 1-350, heterogeneous phosphorylation | glucosylated (GYG1 is attached with a glucose chain), heterogeneous); assay: pull-down; His-PPP1R3C (1.0 mg ml^-1) preincubated with GYS1–GYG1 complex (0.25 mg ml^-1) or GYG1 (0.5 mg ml^-1) for 30 min at 4 °C, captured on Talon resin in 25 mM HEPES pH 7.5, 100 mM NaCl, 1 mM TCEP, 0.2% Tween-20; wash with 10 mM imidazole; SDS-PAGE, Coomassie; conditions: both partners purified
T3 construct: human glycogen synthase GYS1, full length; human glycogenin-1 (GYG1), isoform GN-1L, UniProt P46976-1, full length; source: Sf9 cells, coexpressed, purified (Ni-Sepharose, Superose 6, TEV treatment); not shown: His6, N-terminal, cleaved
T3 sequence (looked up) 1: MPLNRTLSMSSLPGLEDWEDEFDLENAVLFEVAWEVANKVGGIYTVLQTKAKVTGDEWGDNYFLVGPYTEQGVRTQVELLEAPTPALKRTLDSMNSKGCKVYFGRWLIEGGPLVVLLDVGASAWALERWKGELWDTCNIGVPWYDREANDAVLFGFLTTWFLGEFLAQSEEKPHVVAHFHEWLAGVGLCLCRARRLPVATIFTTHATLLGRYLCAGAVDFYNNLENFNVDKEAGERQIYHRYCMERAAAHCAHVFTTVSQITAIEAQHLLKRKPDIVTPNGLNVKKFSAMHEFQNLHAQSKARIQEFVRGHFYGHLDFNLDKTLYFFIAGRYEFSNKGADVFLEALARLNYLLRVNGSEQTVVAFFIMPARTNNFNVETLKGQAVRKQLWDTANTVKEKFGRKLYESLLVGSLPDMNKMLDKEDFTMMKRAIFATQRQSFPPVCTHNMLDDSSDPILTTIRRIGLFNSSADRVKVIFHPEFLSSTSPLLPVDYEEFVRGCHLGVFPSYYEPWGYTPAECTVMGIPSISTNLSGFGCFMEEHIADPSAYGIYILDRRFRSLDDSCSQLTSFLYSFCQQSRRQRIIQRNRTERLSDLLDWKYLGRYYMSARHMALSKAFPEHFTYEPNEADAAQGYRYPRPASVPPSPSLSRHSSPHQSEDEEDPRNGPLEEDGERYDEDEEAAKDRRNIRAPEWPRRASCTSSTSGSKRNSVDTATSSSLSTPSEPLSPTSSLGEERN
T3 sequence (looked up) 2: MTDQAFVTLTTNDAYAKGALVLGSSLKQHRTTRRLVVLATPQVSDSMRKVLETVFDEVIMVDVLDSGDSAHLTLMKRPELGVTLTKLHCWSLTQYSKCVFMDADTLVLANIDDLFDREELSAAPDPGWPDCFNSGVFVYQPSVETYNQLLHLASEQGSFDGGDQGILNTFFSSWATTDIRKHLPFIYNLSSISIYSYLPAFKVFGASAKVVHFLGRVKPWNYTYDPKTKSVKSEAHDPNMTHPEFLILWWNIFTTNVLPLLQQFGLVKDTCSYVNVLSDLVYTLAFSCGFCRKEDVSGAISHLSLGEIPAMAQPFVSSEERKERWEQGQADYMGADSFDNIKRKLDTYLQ

[6] = target: the molecule itself; assay: cryo-EM structure; GYS1–GYG1^ΔCD at 0.75 or 0.5 mg ml^-1 in 25 mM HEPES pH 7.5, 200 mM NaCl, 2.0 mM TCEP, 0.05% Tween-20; as purified (inhibited state), with 5 mM Glc6P (inhibited-like and activated states), with 5 mM Glc6P and 5 mM UDP-Glc (activated state); D2 symmetry
[7] = target: B2; assay: as above; conditions: both partners purified

Molecule: OC[C@H]1O[C@H](O[C@H]2[C@H](O)[C@@H](O)[C@@H](O[C@H]3[C@H](O)[C@@H](O)[C@@H](O[C@H]4[C@H](O)[C@@H](O)C(O)O[C@@H]4CO)O[C@@H]3CO)O[C@@H]2CO)[C@H](O)[C@@H](O)[C@@H]1O (stereo partly shown) [maltotetraose]
- thermal shift assay (no Kd) [1]: Glycogen, debranched glycogen, maltotetraose and maltoheptaose increased the thermostability of PTG(CBM21)

Molecule: O=P(O)(O)OC[C@H]1OC(O)[C@H](O)[C@@H](O)[C@@H]1O (stereo partly shown) [Glc6P, glucose-6-phosphate]
- AC50 [2]: 1500 ± 200 µM

Molecule: OC[C@H]1O[C@H](O[C@H]2[C@H](O)[C@@H](O)[C@@H](O[C@H]3[C@H](O)[C@@H](O)[C@@H](O[C@H]4[C@H](O)[C@@H](O)[C@@H](O[C@H]5[C@H](O)[C@@H](O)[C@@H](O[C@H]6[C@H](O)[C@@H](O)[C@@H](O[C@H]7[C@H](O)[C@@H](O)C(O)O[C@@H]7CO)O[C@@H]6CO)O[C@@H]5CO)O[C@@H]4CO)O[C@@H]3CO)O[C@@H]2CO)[C@H](O)[C@@H](O)[C@@H]1O (stereo partly shown) [maltoheptaose]
- AC50 [3]: 2400 ± 600 µM

Molecule: OC[C@H]1OC(O)[C@H](O)[C@@H](O)[C@@H]1O (stereo partly shown) [GLC, glucose]
- cryo-EM structure at 3.0 Å with Glc6P and UDP-glc added (UDP-glc hydrolysed) [4]: The hydrolysed glucose molecule formed multiple hydrogen bonds with the side chains of Arg211, Arg311, Glu510 and Tyr514

B1: human PTG (PPP1R3C) aa 134–259, CBM21 domain construct, His-tagged (domain or fragment, UniProt Q9UQK1 134-259, looked up)
chain: LILDFPQPSTDYLSFRSHFQKNFVCLENCSLQERTVTGTVKVKNVSFEKKVQIRITFDSWKNYTDVDCVYMKNVYGGTDSDTFSFAIDLPPVIPTEQKIEFCISYHANGQVFWDNNDGQNYRIVHV
notes: The His6-tag is TEV-cleavable but was kept: the protein was captured on Talon resin by it; also called PTG(CBM21); His-PPP1R3C; source: cultured in autoinduction Terrific Broth, purified (Ni-Sepharose, Superdex 75); not shown: His6, N-terminal, kept
- binding result [5]: binds

Molecule: B2
- stoichiometry N [6]: 4

B3: human GYG1 C terminus, aa 294–350 (GYG1^ΔCD) (domain or fragment, UniProt P46976-1 294-350, looked up)
chain: EDVSGAISHLSLGEIPAMAQPFVSSEERKERWEQGQADYMGADSFDNIKRKLDTYLQ
notes: human glycogenin-1 (GYG1), isoform GN-1L, UniProt P46976-1, amino acids 294–350, codon-optimized synthetic gene; Residues 317–349 were modelled in the cryo-EM map; The methods name MBP-His6, His6-GST and His6-GFP tags as tried; the results name His6-GST for the bicistronic constructs; also called GYG1 294–350; not shown: His6-GST, N-terminal, cleaved
- stoichiometry N [7]: 1
